Test results reported in publication PMC5902630, “A Firefly Luciferase Dual Color Bioluminescence Reporter Assay Using Two Substrates To Simultaneously Monitor Two Gene Expression Events” (Scientific Reports, 2018).

What was measured:
PLR1 = PLR1 (Photinus pyralis, UniProt P08659, Y255F/S284T, form not given); experiment: bioluminescence burst (maximal light intensity), Michaelis-Menten fit; assay type: biochemical; conditions: 2 mM Mg-ATP, 50 mM Tricine, pH 7.8; read-out: Km (μM) / BtLH2
From the text: bioluminescence burst (maximal light intensity), Michaelis-Menten fit on PLR1

PLG3 = PLG3 (Photinus pyralis, UniProt P08659, F250T/L291I/Y340F/F465R, form not given); experiment: as above; assay type: biochemical; conditions: 2 mM Mg-ATP, 50 mM Tricine, pH 7.8; read-out: Km (μM) / BtLH2
Chain of PLG3 (P08659 whole entry F250T/L291I/Y340F/F465R, form open): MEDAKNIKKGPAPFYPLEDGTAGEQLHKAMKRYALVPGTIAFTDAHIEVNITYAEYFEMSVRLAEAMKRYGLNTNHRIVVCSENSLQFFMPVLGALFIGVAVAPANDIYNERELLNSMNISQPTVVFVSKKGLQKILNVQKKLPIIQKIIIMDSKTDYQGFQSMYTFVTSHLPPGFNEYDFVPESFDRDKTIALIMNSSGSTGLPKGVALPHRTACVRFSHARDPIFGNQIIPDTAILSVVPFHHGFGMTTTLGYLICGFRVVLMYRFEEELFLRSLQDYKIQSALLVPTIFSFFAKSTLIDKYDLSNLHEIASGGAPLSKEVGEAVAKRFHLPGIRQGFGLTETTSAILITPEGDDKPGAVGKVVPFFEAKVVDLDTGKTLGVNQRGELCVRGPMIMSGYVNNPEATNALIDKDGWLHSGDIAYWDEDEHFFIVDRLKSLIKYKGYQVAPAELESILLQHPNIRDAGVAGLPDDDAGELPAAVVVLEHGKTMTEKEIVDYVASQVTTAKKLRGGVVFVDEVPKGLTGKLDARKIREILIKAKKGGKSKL
From the text: bioluminescence burst (maximal light intensity), Michaelis-Menten fit on PLG3

Chain of PLR1 (P08659 whole entry Y255F/S284T, form open): as the sequence (P08659 whole entry F250T/L291I/Y340F/F465R, form open) above, with T250F, Y255F, S284T, I291L, F340Y, R465F counted along it

O=C(O)[C@H]1CSC(c2cc3ccc(O)cc3s2)=N1 [BtLH2]
Km (PLR1): 28 ± 3 µM | Km (PLG3): 5 ± 1 µM
